From US9663764B2, “Generation of cardiomyocytes from human pluripotent stem cells” (Wisconsin Alumni Research Foundation, priority 2011, dated 2017)

Columns and labels:
Type in all cases: cell-based, human
19-9-11 ishcat-2 cells = test: cTnT+ cell generation with Activin A and BMP4 signaling antagonists during CH induction; conditions: dox at 48 hours
Description: (§1) cardiac directed differentiation via small molecules: Cells were dissociated and plated as described in the Activin/BMP4 protocol. When hPS cells maintained on Matrigel® or Synthemax plates achieved confluence, cells were treated with CH in RPMI/B27-insulin for 24 hr (day 0 to day 1). The medium was changed to RPMI/B27-insulin, followed by 2 μg/ml dox treatment at different times between day 1 and day 5 for transgenic cell lines. For genetically unmodified lines, 5 μM IWP2 (Tocris) or IWP4 (Stemgent) was added at day 3 and removed during the day 5 medium change. Cells were maintained in the RPMI/B27 starting from day 7, with the medium changed every 3 days.
Flow Cytometry: Cells were dissociated into single cells and then fixed with 1% paraformaldehyde for 20 min at room temperature and stained with primary and secondary antibodies in PBS plus 0.1% Triton X-100 and 0.5% BSA. […] Data were collected on a FACSCaliber flow cytometer (Beckton Dickinson) and analyzed using FlowJo.
To determine whether canonical Wnt signaling requires TGFβ superfamily signaling to induce cardiogenesis, the inventors quantified cTnT+ cell generation in 19-9-11 ishcat-2 cells when Activin A and BMP4 signaling antagonists were presented during the first 24 hr of cardiomyocyte induction with 12 μM CH. […]

[1] = test system: Smad1/5 and Smad2 phosphorylation in 19-9-11 ishcat cells; test: Smad1/5 and Smad2 phosphorylation, western blot; conditions: for Smad1/5 and Smad2 phosphorylation: 100 ng/ml Activin A at day 0 and 5 ng/ml BMP4 at day 1
Description: Western Blot Analysis: Cells were lysed in M-PER Mammalian Protein Extraction Reagent (Pierce) in the presence of Halt Protease and Phosphatase Inhibitor Cocktail (Pierce). Proteins were separated by 10% Tris-Glycine SDS/PAGE (Invitrogen) under denaturing conditions and transferred to a nitrocellulose membrane. After blocking with 5% milk in TBST, the membrane was incubated with primary antibody overnight at 4° C. The membrane was then washed, incubated with an anti-mouse/rabbit peroxidase-conjugated secondary antibody (1:1000, Cell Signaling) at room temperature for 1 hr, and developed by SuperSignal chemiluminescence (Pierce).
To determine whether canonical Wnt signaling requires TGFβ superfamily signaling to induce cardiogenesis, the inventors quantified cTnT+ cell generation in 19-9-11 ishcat-2 cells when Activin A and BMP4 signaling antagonists were presented during the first 24 hr of cardiomyocyte induction with 12 μM CH. All samples were treated with dox at 48 hours. […] To further investigate the role of TGFβ superfamily signaling in Wnt pathway-mediated cardiogenesis the inventors assessed Smad1/5 and Smad2 phosphorylation, downstream of BMP4 and Activin A signaling respectively. As expected, substantial Smad1/5 and Smad2 phosphorylation was detected in cells that had been treated with Activin A and BMP4 (FIGS. 9B and 10A).

19-9-11 iPSCs = test: Cardiac directed differentiation via small molecules on Matrigel, cTnT/MF20 flow cytometry; conditions: for cTNT+ or MF20+ cells: 12 μM CH at day 0, then 5 μM Wnt inhibitor at day 3, after 15 days
Description: as §1
(§2) Flow Cytometry: Cells were dissociated into single cells and then fixed with 1% paraformaldehyde for 20 min at room temperature and stained with primary and secondary antibodies in PBS plus 0.1% Triton X-100 and 0.5% BSA. For the cell proliferation assay, a 17-hour pulse of BrdU was performed to identify dividing cardiomyocytes (Zhang et al., Circ. Res. 104, e30-41 (2009)). Data were collected on a FACSCaliber flow cytometer (Beckton Dickinson) and analyzed using FlowJo.
While shRNA inhibition of β-catenin provides specific and facile temporal regulation of canonical Wnt signaling, this method requires genetic modification of the hPS cell line which limits its potential clinical utility. The inventors next used the mechanistic insight these modified lines provided regarding the sufficiency of canonical Wnt signaling in cardiomyogenesis to develop a completely defined, growth factor free method of efficiently generating cardiomyocytes from unmodified hPS cell lines using small molecules. First, 19-9-11 iPSCs were maintained in mTeSR1 on Matrigel® for five days, and then the medium was switched to RPMI/B27-insulin containing 12 μM CH. IWP4 and IWP2, which prevent palmitylation of Wnt proteins by porcupine thereby blocking Wnt protein secretion and activity (Chen et al., Nat. Chem. Biol. 5:100-107 (2009)), were used to inhibit Wnt signaling. […] Similar to results obtained with the 19-9-11 ishcat-1 cell line, CH treatment of 19-9-11 cells alone only generated 16% cTNT+ or MF20+ cells after 15 days, while adding 5 μM IWP4 or IWP2 at day 3 increased this to 87% cTNT+ or MF20+ cells. […] In order to achieve fully defined culture conditions, Matrigel® was replaced with a defined peptide acrylate surface (Synthemax) during both hPS cell expansion and differentiation. […] Thus, optimization of canonical WNT signaling via stage-specific addition of small molecule agonists and antagonists produces high yields of functional cardiomyocytes in a completely defined, growth factor free culture system.

[2] = test system: 19-9-11 and IMR90C4 iPSCs; test: Cardiac directed differentiation via small molecules on Synthemax plates, cTnT/MF20 flow cytometry; conditions: 12 μM CH at day 0 and 5 μM IWP4 at day 3, day 15
Description: as §1, §2
While shRNA inhibition of β-catenin provides specific and facile temporal regulation of canonical Wnt signaling, this method requires genetic modification of the hPS cell line which limits its potential clinical utility. […]

IMR90C4 iPSC line = test: Activin A/BMP4 directed cardiac differentiation with BIO pretreatment, cTnT flow cytometry; conditions: three days of BIO pretreatment prior to Activin A and BMP4; day 15
Description: (§3) Cardiac directed differentiation using Activin A and BMP4: hPS cells maintained on Matrigel® in mTeSR1 were dissociated into single cells with Accutase (Invitrogen) at 37° C. for 5 min and then seeded onto a Matrigel®-coated cell culture dish at 100,000 cell/cm^2 in mTeSR1 supplemented with 5 μM ROCK inhibitor (Y-27632, Stemgent) (day −5). Cells were cultured in mTeSR1, changed daily. At day 0, cells were treated with 100 ng/ml Activin A (R&D) in RPMI/B27-insulin. After 24 hr, the medium was changed to RPMI/B27-insulin supplemented with 5 ng/ml BMP4 (R&D) for another 4 days. At day 5, the medium was changed with RPMI/B27-insulin. At day 7 the cells were transferred to RPMI/B27, and medim changed every 3 days. When using GSK3 inhibitors to stimulate differentiation, cells were cultured in mTeSR1 containing BIO or CHIR99021 from day −3 to day 0.
Flow Cytometry: Cells were dissociated into single cells and then fixed with 1% paraformaldehyde for 20 min at room temperature and stained with primary and secondary antibodies in PBS plus 0.1% Triton X-100 and 0.5% BSA. For the cell proliferation assay, a 17-hour pulse of BrdU was performed to identify dividing cardiomyocytes (Zhang et al., Circ. Res. 104, e30-41 (2009)). Data were collected on a FACSCaliber flow cytometer (Beckton Dickinson) and analyzed using FlowJo. […]

H9 hESCs = test: Activin A/BMP4 directed cardiac differentiation with GSK3 inhibitor pretreatment, cTnT flow cytometry; conditions: for contracting cardiomyocytes generated: Activin A and BMP4 protocol without GSK3 inhibitor, H9 cells
Description: as §3, §2
Undifferentiated H9 hESCs were cultured in the presence of 0-8 μM CH for three days prior to EB formation. EBs were cultured in suspension for 4 days before transferring to 0.1% gelatin coated plates. […] The inventors also applied the GSK3 inhibitors CH and BIO to undifferentiated H9 hESCs three days prior to directed differentiation to cardiomyocytes via Activin A and BMP4.

NC(=O)c1ccc(-c2nc(-c3ccc4c(c3)OCO4)c(-c3ccccn3)[nH]2)cc1 [SB431542]
concentrations that completely blocked cardiomyocyte specification (19-9-11 ishcat-2 cells; with 12 μM CH for first 24 hr, cTnT+ at day 15): greater than 2 μM | Smad2 phosphorylation ([1]; 12 μM CH plus SB431542): diminished

Cc1ccc2nc(NC(=O)CSc3nc4c(c(=O)n3-c3ccccc3)SCC4)sc2c1 [IWP2, N-(6-Methyl-2-benzothiazolyl)-2-[(3,4,6,7-tetrahydro-4-oxo-3-phenylthieno[3,2-d]pyrimidin-2-yl)thio]-acetamide]
cTNT+ or MF20+ cells (19-9-11 iPSCs): 87%

COc1ccccc1-n1c(SCC(=O)Nc2nc3ccc(C)cc3s2)nc2c(c1=O)SCC2 [IWP4, 2-(3,4,6,7-tetrahydro-3-(2-methoxyphenyl)-4-oxothieno[3,2-d]pyrimidin-2-ylthio)-N-(6-methylbenzo[d]thiazol-2-yl)acetamide]
cTNT+ or MF20+ cells [2]: approximately 85% | IWP4 concentration giving optimal generation of cardiomyocytes (19-9-11 iPSCs; 12 μM CH at day 0, IWP4 added at day 3): 5 µM | cTNT+ or MF20+ cells (19-9-11 iPSCs): 87%

O=C1Nc2cc(Br)ccc2/C1=C1/Nc2ccccc2/C1=N\O [BIO]
generation of cTNT-expressing cells (IMR90C4 iPSC line): enhanced generation of cTNT-expressing cells in the IMR90C4 iPSC line in a dose-dependent manner | cTNT-labeled cells (H9 hESCs; GSK3 inhibitor (1 μM) 3 days prior to Activin A and BMP4, day 15, average): 50%

CC(C)Oc1ccc(-c2cnc3c(-c4ccnc5ccccc45)cnn3c2)cc1 [DMH1]
percentage of cTnT+ cells (19-9-11 ishcat-2 cells; 0.2-1 μM DMH1 with 12 μM CH for first 24 hr, day 15): decreased the percentage of cTnT+ cells in a concentration-dependent manner | Smad1/5 phosphorylation ([1]; 12 μM CH plus DMH1): strongly attenuated

B1: BMP4: growth factor (R&D) used at 5 ng/ml for directed cardiac differentiation (protein, UniProt P12644 293-408, looked up)
Bone morphogenetic protein 4: SPKHHSQRARKKNKNCRRHSLYVDFSDVGWNDWIVAPPGYQAFYCHGDCPFPLADHLNSTNHAIVQTLVNSVNSSIPKACCVPTELSAISMLYLDEYDKVVLKNYQEMVVEGCGCR
Smad1/5 and Smad2 phosphorylation [1]: substantial | contracting cardiomyocytes generated (H9 hESCs): very few contracting cardiomyocytes

B2: Activin A: growth factor (R&D) used at 100 ng/ml for directed cardiac differentiation (protein, UniProt P08476 311-426, looked up)
Inhibin beta A chain: GLECDGKVNICCKKQFFVSFKDIGWNDWIIAPSGYHANYCEGECPSHIAGTSGSSLSFHSTVINHYRMRGHSPFANLKSCCVPTKLRPMSMLYYDDGQNIIKKDIQNMIVEECGCS
modifications: Inhibin beta A chain
notes: growth factor (R&D) used at 100 ng/ml for directed cardiac differentiation
Smad1/5 and Smad2 phosphorylation [1]: substantial | contracting cardiomyocytes generated (H9 hESCs): very few contracting cardiomyocytes
